Experimental data taken from patent US20250059499A1, “CELL-SURFACE ENGINEERING COMPOSITIONS AND METHODS FOR THE PREVENTION OF IMMUNE REJECTION” (THE UNIVERSITY OF BRITISH COLUMBIA, priority 2021, published 2025).
LPG = linear polyglycerol, Mn 14,900 Da

Assays:
[1] = tested on: Ea.hy926 cells co-cultured with HLA-A2-reactive CAR T cells; assay type: cell-based; details: effector:target 2:1, 1:2 and 1:10, 18 hours
Protocol: The experiment was performed similar to previously described PBMC/Ea.hy926 co-culture experiments by replacing the effector with CAR-T cells. Ea.hy926 cells were engineered with polymers in UW solution as outlined. Cryopreserved CAR T cells were thawed using standard protocol41 and were pelleted and resuspended in phenol-free DMEM (5% FBS, pen/strep) at an effector (CAR-T cell) to target (Ea.hy926) ratios of 2:1, 1:2 and 1:10 (Vf=100 μL). After 18 hours, supernatants were removed from the wells and PBMCs were removed through centrifugation (300 g×5 minutes) and measured for LDH content to probe cell lysis using an LDH cytotoxicity assay (Biovision Inc.™). CAR-T cell-mediated cytotoxicity was calculated according to Eq. 2 replacing PBMC LDH release with CAR-T cell LDH release. LDH released by Ea.hy926 following 18 hour culture period that have not undergone polymer attachment and cultured in the absence of CAR-T cell is the 100% alive control and LDH released by Ea.hy926 following treatment with RIPA buffer for 10 minutes at ambient temperature is 100% dead control.

[2] = tested on: Ea.hy926 cells; experiment: Lifetime of grafted polymer on the cell surface; assay type: cell-based; details: 37° C., after ligation with 0.5 mM polymer
Protocol: For lifetime measurements, polymers were attached to endothelial surfaces according to procedures outlined herein using 0.5 mM LPG-Q (10% BODIPY FL™) and exchanged into phenol-free DMEM (5% FBS, pen/strep) and incubated at 37° C. and 5% CO2. For each time point the supernatant was removed and saved for further analysis and the cell monolayers were trypsinized and subjected to flow cytometry (CytoFLEX™, Beckman Coulter™) in which 10,000 events were acquired and the median fluorescent intensity (MFI) in the 488 channel was recorded. The fluorescent intensity of the BODIPY-FL Dye in the supernatant was measured (λex/λem=503/520 nm using) a plate reader (Spectramax i3™, Molecular Devices™). Intensity values were normalized to the total cell number in each well as assessed by a trypan blue staining assay.

[3] = tested on: TNF-α activated Ea.hy926 cells co-cultured with IL-2 activated PBMCs
Protocol: (§1) EA.hy 926 monolayers were activated using TNF-α and PBMCs were activated using IL-2 as described in PBMC adhesion experiments. Following activation, PBMC was collected and resuspended in DMEM (Phenol free, 5% FBS, pen/strep). PBMCs were then added to activated EA.hy 926 monolayers (modified and unmodified) to a final concentration of 0.15×10^6 cells/mL and left to incubate at 37° C. and 5% CO2 for 18 hour. After treatment, the supernatant was collected and cell debris was removed through centrifugation. LDH content was measured using LDC cytotoxicity assay (Biovision Inc.™). Cytotoxicity was calculated using the equation below;
(§2) where, LDHsample is the amount of LDH released from the sample, LDHPBMC is the amount of LDH released from PBMC samples not subjected to EA.hy 926 monolayers, LDHalive is the amount of LDH released from EA.hy 926 monolayers not subjected to PBMCs, and LDHdead is the amount of LDH released of EA.hy926 monolayers treated with RIPA buffer for 10 minutes at room temperature.

[4] = tested on: Ea.hy926 cells; experiment: Enzyme-mediated glycocalyx removal from endothelial surface (loss of attached polymer); assay type: cell-based; details: 0.1 mM H2O2 and 1 nM epinephrine, 1 hour at 37° C.
Protocol: Ea.hy926 endothelial cells were treated with 0.5 mM LPG-SS or LPG-Q (containing 10% BODIPY FL) for 30 min at 4° C. in UW solution fortified with 3 mM GSH, 5 mM CaCl2, 0.2 U/mL gtTGase. […] Cells were washed, trypsinized and immediately subjected to flow cytometry. Controls with no enzyme treatment were used to set gates for 100% labeled cell populations.

[5] = tested on: Ea.hy926 cells; experiment: Polymer attachment to endothelial cell surface by flow cytometry (BODIPY FL-labelled polymer); assay type: cell-based
Protocol: Ea.hy 926 cells at […] confluence were trypsinized and plated in a 96 well plate at 15,000 cells/well. Cells reached 100% confluence at day 3 and allowed to grow for a further 4 days at 37° C. and 5% CO2. Cells were washed twice with cold DPBS and incubated with UW solution freshly supplemented with 3 mM GSH, 5 mM CaCl2, 0.2 […] and 0.5 mM LPG-Q or 0.56 mM glycopolymers ([…]) unless otherwise noted. The solutions were mixed thoroughly and incubated at 4° C. for 30 minutes under static conditions. The cell supernatant was collected and the cells were washed three times with PBS and subjected to further analysis. The assessment of polymer attachment to endothelial cells are assessed by ammonia assay, flow cytometry and polymer mediated cell-surface camouflage of surface proteins. […] To quantify the extent of cell surface engineering, polymers were attached to endothelial surfaces according to the general cell surface engineering procedures outlined in previously using polymer in which 10% were labelled with BODIPY FLTM (ratio of non-labeled polymer: BODIPY labeled polymer=9:1). The cell monolayers were trypsinized and subjected to flow cytometry (CytoFLEXTM, Beckman CoulterTM) in which 10,000 events were acquired and the median fluorescent intensity (MFI) in the 488 channel was recorded.

[6] = tested on: TNF-α activated Ea.hy926 cells co-cultured with IL-2 activated PBMCs; experiment: PBMC-mediated cytotoxicity (LDH assay)
Protocol: as §1, §2

[7] = tested on: Balb/c aortic allograft in C57BL/6 recipient; experiment: Murine aortic interposition grafting, morphological analysis of allograft arteries; assay type: in vivo, mouse; details: day 2 post-transplantation
Protocol: Murine aortic interposition grafting was performed as described previously.^13,14 Segments of abdominal aorta from Balb/c (H2d) donor mice were excised, flushed with UW solution and then incubated in UW solution alone (containing 5 Mm CaCl2, 0.2 U/Ml gTGase and 3 mM GSH) or UW solution fortified with 0.2 U/mL gtTGase and 0.5 Mm polymer (LPG-Q, LPG-QSia3Lac) for 1 hour at 4° C. Aortic segments were then flushed with saline and interposed into the resected infra-renal aorta of C57BL/6 (H2b) recipient mice.
At day 2, 15 and 42 post-transplantation, grafted artery segments were perfusion fixed with 4% (v/v) paraformaldehyde, excised, and frozen in optimal cutting temperature medium. […] Medial thickness was quantified using ImageJ software (NIH) as described.69 Histological features of acute rejection at day 15 post-transplantation were graded in a blinded manner on a 0-12 scale because acute rejection involves more extensive features of immune reaction and injury compared to day 2 post-transplantation. […] Leukocyte infiltration, medial injury and intimal thickening were each graded on a 0-4 scale and an aggregate score calculated. For evaluation of chronic rejection, intimal thickening at day 42 was quantified by averaging the luminal narrowing in 3 cross-sections per artery that were ˜100, 150 and 200 μm past the suture sites using ImageJ™ software.

Substance: linear polyglycerol glutamine (Ac-GQQQLGGGGG-{LPG}; not fully specified; also: part of the polymer BODIPY FL-labelled in some experiments) [LPG-Q]
- CAR-T cell induced endothelial cell cytotoxicity [1]: reduced endothelial cytotoxicity
- half-life (t1/2) on the cell surface [2]: 8 h
- decrease of PBMC-mediated cytotoxicity compared to unmodified cells [3]: under 2 fold
- dependence of PBMC-mediated cytotoxicity suppression on polymer concentration or sialylation [3]: no continued significant increase in immunosuppression was observed beyond 0.27 mM
- polymer retained / glycocalyx specificity after enzyme-mediated glycocalyx removal [4]: higher specificity for glycocalyx modification
- LPG-Q attachment versus concentration ([5]; 0.2 mM-3.0 mM, 4° C., 30 minutes, UW solution with gtTGase): dose-dependent increase
- levels of cell-surface labelling, enzyme-mediated approach compared to succinimidyl succinate amine coupling ([5]; 30 min at 4° C. in UW solution with gtTGase, versus LPG-SS): ~4.4 fold
- immunosuppression on the cell surface compared with polymer in solution [6]: more potent immunosuppression than LPG-Q-Sia3Lac in solution
- PBMC-mediated endothelial cell death, in words ([6]; polymer ligated to cell surface): suppress PBMC-mediated endothelial cell death
- medial inflammation (graded 0-4) [7]: not demonstrated
